Assay: RuAAC macrocyclisation of azide/terminal alkyne linear peptidomimetics to 1,5-triazole ([Cp*RuCl]4 0.1 eq, Ar-degassed), then Boc removal (TMSCl/MeOH GP4 or HCl/dioxane GP5)
Conditions: toluene (reflux), 1.25 mM, 111.0 °C, 18.0 h, 2 steps

Work on COC(=O)[C@@H]1CCCn2nncc2CCCC(=O)NC[C@H](N)C(=O)N1 [Boc-Dap(5-hexynoyl)-Orn(N3)-OMe] yielded a ring closure, yield over several steps (from C#CCCCC(=O)NC[C@H](NC(=O)OC(C)(C)C)C(=O)N[C@@H](CCCN=[N+]=[N-])C(=O)OC, 15-membered ring) of 99%.

Work on COC(=O)[C@@H]1CCCCn2nncc2CCCC(=O)NCCCC[C@H](N)C(=O)N1 [Boc-Lys(5-hexynoyl)-Lys(N3)-OMe] yielded a ring closure, yield over several steps (from C#CCCCC(=O)NCCCC[C@H](NC(=O)OC(C)(C)C)C(=O)N[C@@H](CCCCN=[N+]=[N-])C(=O)OC, 19-membered ring) of 65%.

Work on COC(=O)[C@@H]1CCCCNC(=O)[C@H](Cc2ccccc2)n2nncc2CCCC(=O)NC[C@H](N)C(=O)N1 [Boc-Dap(5-hexynoyl)-Lys(N3-Phe)-OMe] yielded a ring closure, yield over several steps (from C#CCCCC(=O)NC[C@H](NC(=O)OC(C)(C)C)C(=O)N[C@@H](CCCCNC(=O)[C@H](Cc1ccccc1)N=[N+]=[N-])C(=O)OC, 19-membered ring) of 99%.

With COC(=O)[C@@H]1CCCn2nncc2CCC(=O)NCC[C@H](N)C(=O)N1 [Boc-Dab(4-pentynoyl)-Orn(N3)-OMe] the ring closure, yield over several steps (from C#CCCC(=O)NCC[C@H](NC(=O)OC(C)(C)C)C(=O)N[C@@H](CCCN=[N+]=[N-])C(=O)OC, 15-membered ring) was 82%.

In the case of COC(=O)[C@@H]1Cc2ccc(cc2)-n2nncc2CCC(=O)NCC[C@H](N)C(=O)N1 [Boc-Dab(4-pentynoyl)-Phe(4-N3)-OMe], the ring closure, yield over several steps (from C#CCCC(=O)NCC[C@H](NC(=O)OC(C)(C)C)C(=O)N[C@@H](Cc1ccc(N=[N+]=[N-])cc1)C(=O)OC, 17-membered ring) is reported as 83%.

COC(=O)[C@@H]1CCCCNC(=O)[C@H](Cc2ccccc2)n2nncc2CCCC(=O)Nc2ccc(cc2)C[C@H](N)C(=O)N1 [Boc-Phe(4-NH-5-hexynoyl)-Lys(N3-Phe)-OMe] gave a ring closure, yield over several steps (from C#CCCCC(=O)Nc1ccc(C[C@H](NC(=O)OC(C)(C)C)C(=O)N[C@@H](CCCCNC(=O)[C@H](Cc2ccccc2)N=[N+]=[N-])C(=O)OC)cc1, 23-membered ring) of 50%.

Work on COC(=O)[C@@H]1CCCCn2nncc2CNC(=O)NCCC[C@H](N)C(=O)N1 [Boc-Orn(CONH-propargyl)-Lys(N3)-OMe] yielded a ring closure, yield over several steps (from C#CCNC(=O)NCCC[C@H](NC(=O)OC(C)(C)C)C(=O)N[C@@H](CCCCN=[N+]=[N-])C(=O)OC, 17-membered ring) of 99%.

In the case of COC(=O)[C@@H]1CCCCNC(=O)[C@H](Cc2ccccc2)n2nncc2CCC(=O)NCC[C@H](N)C(=O)N1 [Boc-Dab(4-pentynoyl)-Lys(N3-Phe)-OMe], the ring closure, yield over several steps (from C#CCCC(=O)NCC[C@H](NC(=O)OC(C)(C)C)C(=O)N[C@@H](CCCCNC(=O)[C@H](Cc1ccccc1)N=[N+]=[N-])C(=O)OC, 19-membered ring) is reported as 90%.

Work on COC(=O)[C@@H]1CCCCNC(=O)[C@H](Cc2ccccc2)n2nncc2CCCC(=O)NCCC[C@H](N)C(=O)N1 [Boc-Orn(5-hexynoyl)-Lys(N3-Phe)-OMe] yielded a ring closure, yield over several steps (from C#CCCCC(=O)NCCC[C@H](NC(=O)OC(C)(C)C)C(=O)N[C@@H](CCCCNC(=O)[C@H](Cc1ccccc1)N=[N+]=[N-])C(=O)OC, 21-membered ring) of 86%.

In the case of COC(=O)[C@@H]1CCCn2nncc2CCCC(=O)NCCCC[C@H](N)C(=O)N1 [Boc-Lys(5-hexynoyl)-Orn(N3)-OMe], the ring closure, yield over several steps (from C#CCCCC(=O)NCCCC[C@H](NC(=O)OC(C)(C)C)C(=O)N[C@@H](CCCN=[N+]=[N-])C(=O)OC, 18-membered ring) is reported as 99%.

COC(=O)[C@@H]1CNC(=O)[C@H](Cc2ccccc2)n2nncc2CCCC(=O)Nc2ccc(cc2)C[C@H](N)C(=O)N1 [Boc-Phe(4-NH-5-hexynoyl)-Dap(N3-Phe)-OMe] gave a ring closure, yield over several steps (from C#CCCCC(=O)Nc1ccc(C[C@H](NC(=O)OC(C)(C)C)C(=O)N[C@@H](CNC(=O)[C@H](Cc2ccccc2)N=[N+]=[N-])C(=O)OC)cc1, 20-membered ring) of 15%.

With COC(=O)[C@@H]1Cc2ccc(cc2)-n2nncc2CCCC(=O)NCC[C@H](N)C(=O)N1 [Boc-Dab(5-hexynoyl)-Phe(4-N3)-OMe] the ring closure, yield over several steps (from C#CCCCC(=O)NCC[C@H](NC(=O)OC(C)(C)C)C(=O)N[C@@H](Cc1ccc(N=[N+]=[N-])cc1)C(=O)OC, 18-membered ring) was 97%.

Work on COC(=O)[C@@H]1CNC(=O)[C@H](Cc2ccccc2)n2nncc2CNC(=O)NCCC[C@H](N)C(=O)N1 [Boc-Orn(CONH-propargyl)-Dap(N3-Phe)-OMe] yielded a ring closure, yield over several steps (from C#CCNC(=O)NCCC[C@H](NC(=O)OC(C)(C)C)C(=O)N[C@@H](CNC(=O)[C@H](Cc1ccccc1)N=[N+]=[N-])C(=O)OC, 17-membered ring) of 86%.

With COC(=O)[C@@H]1CCCCn2nncc2CCCC(=O)NCCC[C@H](N)C(=O)N1 [Boc-Orn(5-hexynoyl)-Lys(N3)-OMe] the ring closure, yield over several steps (from C#CCCCC(=O)NCCC[C@H](NC(=O)OC(C)(C)C)C(=O)N[C@@H](CCCCN=[N+]=[N-])C(=O)OC, 18-membered ring) was 99%.

With COC(=O)[C@@H]1CCCCn2nncc2CNC(=O)NCCCC[C@H](N)C(=O)N1 [Boc-Lys(CONH-propargyl)-Lys(N3)-OMe] the ring closure, yield over several steps (from C#CCNC(=O)NCCCC[C@H](NC(=O)OC(C)(C)C)C(=O)N[C@@H](CCCCN=[N+]=[N-])C(=O)OC, 18-membered ring) was 99%.

With COC(=O)[C@@H]1CCCn2nncc2CCCC(=O)NCCC[C@H](N)C(=O)N1 [Boc-Orn(5-hexynoyl)-Orn(N3)-OMe] the ring closure, yield over several steps (from C#CCCCC(=O)NCCC[C@H](NC(=O)OC(C)(C)C)C(=O)N[C@@H](CCCN=[N+]=[N-])C(=O)OC, 17-membered ring) was 99%.

In the case of COC(=O)[C@@H]1Cc2ccc(cc2)-n2nncc2CCC(=O)NC[C@H](N)C(=O)N1 [Boc-Dap(4-pentynoyl)-Phe(4-N3)-OMe], the ring closure, yield over several steps (from C#CCCC(=O)NC[C@H](NC(=O)OC(C)(C)C)C(=O)N[C@@H](Cc1ccc(N=[N+]=[N-])cc1)C(=O)OC, 16-membered ring) is reported as 33%.

With COC(=O)[C@@H]1CNC(=O)[C@H](Cc2ccccc2)n2nncc2CCC(=O)NCCCC[C@H](N)C(=O)N1 [Boc-Lys(4-pentynoyl)-Dap(N3-Phe)-OMe] the ring closure, yield over several steps (from C#CCCC(=O)NCCCC[C@H](NC(=O)OC(C)(C)C)C(=O)N[C@@H](CNC(=O)[C@H](Cc1ccccc1)N=[N+]=[N-])C(=O)OC, 18-membered ring) was 90%.

COC(=O)[C@@H]1CCCCn2nncc2CCC(=O)NC[C@H](N)C(=O)N1 [Boc-Dap(4-pentynoyl)-Lys(N3)-OMe] showed a ring closure, yield over several steps (from C#CCCC(=O)NC[C@H](NC(=O)OC(C)(C)C)C(=O)N[C@@H](CCCCN=[N+]=[N-])C(=O)OC, 15-membered ring) of 88%.

COC(=O)[C@@H]1CNC(=O)[C@H](Cc2ccccc2)n2nncc2CNC(=O)NC[C@H](N)C(=O)N1 [Boc-Dap(CONH-propargyl)-Dap(N3-Phe)-OMe] showed a ring closure, yield over several steps (from C#CCNC(=O)NC[C@H](NC(=O)OC(C)(C)C)C(=O)N[C@@H](CNC(=O)[C@H](Cc1ccccc1)N=[N+]=[N-])C(=O)OC, 15-membered ring) of 40%.
